Measured values: US6524566B2, “Synthetic soil-extract materials and medicaments for herpes viruses based thereon” (Laub Biochemicals Corp., priority 1997, dated 2003)
In brackets after ≈: the same amount, converted by molar mass.

Key:
[1] = tested on: EBV (Daudi Cells); experiment: EBV VCA ELISA in superinfected Daudi cells; type: cell-based, Epstein-Barr virus; conditions: human gammaherpesvirus 4, 96 h, 4 days
Excerpt: The EBV prototype virus used in the assay of this work was P3HR-1, which is derived from supernatant fluids of the P3HR-1 cell line. This cell line produces nontransforming virus that induces the production of early antigen (EA) and viral capsid antigen (VCA) after primary infection or superinfection of B cell lines. Daudi was the test-cell line, which is a low-level producer that contains 152 EBV genome copies per cell. These cells respond to superinfection by EBV by expressing EA and VCA. The cell line was maintained in RPMI-1640 medium supplemented by 10% FBS, L-glutamine and 100 micrograms per milliliter gentamicin. The cultures were fed twice weekly and the cell concentration adjusted to 3×10^5 cells per milliliter. The cells were kept at 37° C. in a humidified atmosphere with 5% CO2.
Daudi cells were infected and treated with humates as described above for HSV, HCMV, and VZV. The cultures were incubated for 4 days at 37° C. The cells were counted, washed and brought to the desired final concentration. For each dilution of humate, cells were added to triplicate wells of a 96-well plate and air-dried. The cells were then fixed for 20 minutes in an acetic acid/ethanol solution. […] The reaction was stopped by adding 3 Normal sulfuric acid, following which the plates were read on a microplate reader at 492 nanometers.

[2] = tested on: HSV-2 (HFF Cells); experiment: HSV-2 cytoprotection assay in HFF cells (crystal violet); type: cell-based, herpes simplex virus type 2; conditions: Human alphaherpesvirus 2, 72 h, 3 days
[3] = tested on: HSV-1 (HFF Cells); experiment: HSV-1 cytoprotection assay in HFF cells (crystal violet); type: cell-based, herpes simplex virus type 1; conditions: Human alphaherpesvirus 1, 72 h, 3 days
[4] = tested on: HCMV (HFF Cells); experiment: HCMV cytoprotection assay in HFF cells (crystal violet); type: cell-based, human cytomegalovirus; conditions: Human betaherpesvirus 5, 336 h, 14 days

SMILES	IC50 [1] [µg/mL]	IC50 [2] [µg/mL]	IC90 [2] [µg/mL]	IC50 [3] [µg/mL]	IC90 [3] [µg/mL]	IC50 [4] [µg/mL]	IC90 [4] [µg/mL]
Nc1nc2c(ncn2COCCO)c(=O)[nH]1 [Acyclovir]	1.8 to 2.4 (≈ 7.99 to 10.7 µM)	1.1 to 1.3 (≈ 4.88 to 5.77 µM)	9.5 (≈ 42.2 µM)	1.2 to 1.6 (≈ 5.33 to 7.1 µM)	7.9 (≈ 35.1 µM)		
Nc1nc(O)c2ncn(COC(CO)CO)c2n1 [Ganciclovir]						0.3 to 0.76 (≈ 1.18 to 2.98 µM)	0.6 to 1.3 (≈ 2.35 to 5.09 µM)
